Test results as given in patent US12338484B2, “FRET biosensor for detecting and reporting NAD+/NADH ratio changes” (Sartorius BioAnalytical Instruments, Inc., priority 2022, dated 2025).

Assay: Performance of initial constructs under dual-excitation FRET signal collection mode
Format: biochemical
Description: Constructs #10 and #14 in Table 3 were used to generate protein libraries. […] This is evidenced by the fact that all clones chosen from the libraries to proceed with have in vitro a substantial increase in signal window, compared to the original template protein (constructs #10 or #14). These increases are also roughly similar fold-wise between the numbers obtained in bacterial lysate screening and in the process of in vitro characterization.

Rex(A)-cpmEGFP(173/174)-Rex(B)-mKOk [Construct #12]
Performance under dual-excitation FRET signal collection mode: poor performance
